{"source": "patent US7138361B2", "about": "“Herbicidal heterocycles” (E. I. du Pont de Nemours and Company, priority 2000, dated 2006)", "assay_in_all_cases": "Test C preemergence", "format_in_all_cases": "in vivo", "key": {"Nightshade [1]": {"system": "Nightshade"}, "Sunflower": {"system": "Sunflower", "settings": "Rate 125 g/ha; scale 0 to 100, 0 no effect, 100 complete control"}, "[2]": {"system": "Surinam grass (Brachiaria decumbens)", "settings": "for Plant response rating (0 to 100), Surinam grass: visual evaluation after 12 to 14 days", "how_it_was_run": "(§1)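 Each compound was dissolved in a non-phytotoxic solvent system containing a surfactant and sprayed either on freshly planted seeds (preemergence) or on young plants, 2 to 18 cm high (postemergence). Ratings after 12 to 14 greenhouse days ran from 0, no effect, to 100, complete control.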"}, "[3]": {"system": "bermudagrass (Cynodon dactylon)", "settings": "for Plant response rating (0 to 100 where 0 is no effect and 100 is complete control), Bermudagrass: visual evaluation after 12 to 14 days", "how_it_was_run": "as §1"}, "[4]": {"system": "cocklebur (Xanthium strumarium)", "settings": "for Plant response rating (0 to 100), Cocklebur: visual evaluation after 12 to 14 days", "how_it_was_run": "as §1"}, "[5]": {"system": "common ragweed (Ambrosia elatior)", "how_it_was_run": "as §1"}, "corn (Zea mays)": {"system": "corn (Zea mays)", "settings": "for Plant response rating (0 to 100), Corn: visual evaluation after 12 to 14 days", "how_it_was_run": "as §1"}, "[6]": {"system": "crabgrass (Digitaria sanguinalis)", "settings": "for Plant response rating (0 to 100), Crabgrass: visual evaluation after 12 to 14 days", "how_it_was_run": "as §1"}, "[7]": {"system": "giant foxtail (Setaria faberii)", "settings": "for Plant response rating (0 to 100), Foxtail, Giant: visual evaluation after 12 to 14 days", "how_it_was_run": "as §1"}, "[8]": {"system": "goosegrass (Eleusine indica)", "settings": "for Plant response rating (0 to 100), Goosegrass: visual evaluation after 12 to 14 days", "how_it_was_run": "as §1"}, "[9]": {"system": "johnsongrass (Sorghum halepense)", "settings": "for Plant response rating (0 to 100), Johnsongrass: visual evaluation after 12 to 14 days", "how_it_was_run": "as §1"}, "kochia (Kochia scoparia)": {"system": "kochia (Kochia scoparia)", "settings": "for Plant response rating (0 to 100), Kochia: visual evaluation after 12 to 14 days", "how_it_was_run": "as §1"}, "[10]": {"system": "lambsquarters (Chenopodium album)", "how_it_was_run": "as §1"}, "[11]": {"system": "morningglory (Ipomoea hederacea)", "how_it_was_run": "as §1"}, "[12]": {"system": "pigweed (Amaranthus retroflexus)", "how_it_was_run": "as §1"}, "soybean (Glycine max)": {"system": "soybean (Glycine max)", "how_it_was_run": "as §1"}, "[13]": {"system": "velvetleaf (Abutilon theophrasti)", "how_it_was_run": "as §1"}, "[14]": {"system": "woolly cupgrass (Eriochloa villosa)", "settings": "for Plant response rating (0 to 100), Cupgrass, Woolly: visual evaluation after 12 to 14 days", "how_it_was_run": "as §1"}, "[15]": {"system": "yellow nutsedge (Cyperus esculentus)", "how_it_was_run": "as §1"}, "Nightshade [16]": {"system": "Nightshade", "settings": "Rate 500 g/ha, visual evaluation after 12 to 14 days"}, "[17]": {"settings": "Rate 125 g/ha, scale 0 to 100, 0 no effect, 100 complete control"}, "[18]": {"settings": "preemergence, Rate 62 g/ha, scale 0 to 100"}, "[19]": {"settings": "preemergence, Rate 500 g/ha, visual evaluation after 12 to 14 days"}, "[20]": {"settings": "preemergence, Rate 250 g/ha, scale 0 to 100, 0 no effect, 100 complete control"}}}
{"compound": "COc1cccc(N2CCC(n3ccc(C(C)(C)C)n3)C2=O)c1", "note": "(stereo not shown) [Compound 87]", "values": [{"measurement": "Plant response rating, Nightshade", "setting": "Nightshade [1]; Rate 62 g/ha, scale 0 to 100", "result": 0}, {"measurement": "Plant response rating, Nightshade", "setting": "Nightshade [1]; [17]", "result": 10}, {"measurement": "Plant response rating, Nightshade", "setting": "Nightshade [1]; Rate 250 g/ha, scale 0 to 100, 0 no effect, 100 complete control", "result": 60}, {"measurement": "Plant response rating, Sunflower", "setting": "Sunflower", "result": 20}, {"measurement": "Plant response rating, Surinam grass", "setting": "[2]; [17]", "result": 100}, {"measurement": "Plant response rating, Surinam grass", "setting": "[2]; [18]", "result": 40}, {"measurement": "Plant response rating (0 to 100), Surinam grass", "setting": "[2]; preemergence, Rate 250 g/ha", "result": 100}, {"measurement": "Plant response rating (0 to 100), Surinam grass", "setting": "[2]; preemergence, Rate 500 g/ha", "result": 100}, {"measurement": "Plant response rating, Bermudagrass", "setting": "[3]; [17]", "result": 100}, {"measurement": "Plant response rating, Bermudagrass", "setting": "[3]; [18]", "result": 100}, {"measurement": "Plant response rating (0 to 100 where 0 is no effect and 100 is complete control), Bermudagrass", "setting": "[3]; preemergence, Rate 250 g/ha", "result": 100}, {"measurement": "Plant response rating (0 to 100 where 0 is no effect and 100 is complete control), Bermudagrass", "setting": "[3]; preemergence, Rate 500 g/ha", "result": 100}, {"measurement": "Plant response rating, Cocklebur", "setting": "[4]; [17]", "result": 0}, {"measurement": "Plant response rating, Cocklebur", "setting": "[4]; [18]", "result": 0}, {"measurement": "Plant response rating (0 to 100), Cocklebur", "setting": "[4]; preemergence, Rate 250 g/ha", "result": 0}, {"measurement": "Plant response rating (0 to 100), Cocklebur", "setting": "[4]; preemergence, Rate 500 g/ha", "result": 0}, {"measurement": "Plant response rating, Ragweed, Common", "setting": "[5]; [17]", "result": 0}, {"measurement": "Plant response rating, Ragweed, Common", "setting": "[5]; [18]", "result": 0}, {"measurement": "Plant response rating (0 to 100), Ragweed, Common", "setting": "[5]; [19]", "result": 0}, {"measurement": "Plant response rating, Ragweed, Common", "setting": "[5]; [20]", "result": 0}, {"measurement": "Plant response rating, Corn", "setting": "corn (Zea mays); [17]", "result": 70}, {"measurement": "Plant response rating, Corn", "setting": "corn (Zea mays); [18]", "result": 40}, {"measurement": "Plant response rating (0 to 100), Corn", "setting": "corn (Zea mays); preemergence, Rate 250 g/ha", "result": 70}, {"measurement": "Plant response rating (0 to 100), Corn", "setting": "corn (Zea mays); preemergence, Rate 500 g/ha", "result": 80}, {"measurement": "Plant response rating, Crabgrass", "setting": "[6]; [17]", "result": 100}, {"measurement": "Plant response rating, Crabgrass", "setting": "[6]; [18]", "result": 100}, {"measurement": "Plant response rating (0 to 100), Crabgrass", "setting": "[6]; preemergence, Rate 250 g/ha", "result": 100}, {"measurement": "Plant response rating (0 to 100), Crabgrass", "setting": "[6]; preemergence, Rate 500 g/ha", "result": 100}, {"measurement": "Plant response rating, Foxtail, Giant", "setting": "[7]; [17]", "result": 100}, {"measurement": "Plant response rating, Foxtail, Giant", "setting": "[7]; [18]", "result": 30}, {"measurement": "Plant response rating (0 to 100), Foxtail, Giant", "setting": "[7]; preemergence, Rate 250 g/ha", "result": 100}, {"measurement": "Plant response rating (0 to 100), Foxtail, Giant", "setting": "[7]; preemergence, Rate 500 g/ha", "result": 100}, {"measurement": "Plant response rating, Goosegrass", "setting": "[8]; [17]", "result": 100}, {"measurement": "Plant response rating, Goosegrass", "setting": "[8]; [18]", "result": 100}, {"measurement": "Plant response rating (0 to 100), Goosegrass", "setting": "[8]; preemergence, Rate 250 g/ha", "result": 100}, {"measurement": "Plant response rating (0 to 100), Goosegrass", "setting": "[8]; preemergence, Rate 500 g/ha", "result": 100}, {"measurement": "Plant response rating, Johnsongrass", "setting": "[9]; [17]", "result": 90}, {"measurement": "Plant response rating, Johnsongrass", "setting": "[9]; [18]", "result": 90}, {"measurement": "Plant response rating (0 to 100), Johnsongrass", "setting": "[9]; preemergence, Rate 250 g/ha", "result": 100}, {"measurement": "Plant response rating (0 to 100), Johnsongrass", "setting": "[9]; preemergence, Rate 500 g/ha", "result": 100}, {"measurement": "Plant response rating, Kochia", "setting": "kochia (Kochia scoparia); [17]", "result": 100}, {"measurement": "Plant response rating, Kochia", "setting": "kochia (Kochia scoparia); [18]", "result": 100}, {"measurement": "Plant response rating (0 to 100), Kochia", "setting": "kochia (Kochia scoparia); preemergence, Rate 250 g/ha", "result": 100}, {"measurement": "Plant response rating (0 to 100), Kochia", "setting": "kochia (Kochia scoparia); preemergence, Rate 500 g/ha", "result": 100}, {"measurement": "Plant response rating, Lambsquarters", "setting": "[10]; [17]", "result": 100}, {"measurement": "Plant response rating, Lambsquarters", "setting": "[10]; [18]", "result": 100}, {"measurement": "Plant response rating (0 to 100), Lambsquarters", "setting": "[10]; [19]", "result": 100}, {"measurement": "Plant response rating, Lambsquarters", "setting": "[10]; [20]", "result": 100}, {"measurement": "Plant response rating, Morningglory", "setting": "[11]; [17]", "result": 0}, {"measurement": "Plant response rating, Morningglory", "setting": "[11]; [18]", "result": 0}, {"measurement": "Plant response rating (0 to 100), Morningglory", "setting": "[11]; [19]", "result": 0}, {"measurement": "Plant response rating, Morningglory", "setting": "[11]; [20]", "result": 0}, {"measurement": "Plant response rating, Pigweed", "setting": "[12]; [17]", "result": 0}, {"measurement": "Plant response rating, Pigweed", "setting": "[12]; [18]", "result": 0}, {"measurement": "Plant response rating (0 to 100), Pigweed", "setting": "[12]; [19]", "result": 100}, {"measurement": "Plant response rating, Pigweed", "setting": "[12]; [20]", "result": 100}, {"measurement": "Plant response rating, Soybean", "setting": "soybean (Glycine max); [17]", "result": 20}, {"measurement": "Plant response rating, Soybean", "setting": "soybean (Glycine max); [18]", "result": 0}, {"measurement": "Plant response rating (0 to 100), Soybean", "setting": "soybean (Glycine max); [19]", "result": 30}, {"measurement": "Plant response rating, Soybean", "setting": "soybean (Glycine max); [20]", "result": 20}, {"measurement": "Plant response rating, Velvetleaf", "setting": "[13]; [17]", "result": 10}, {"measurement": "Plant response rating, Velvetleaf", "setting": "[13]; [18]", "result": 10}, {"measurement": "Plant response rating (0 to 100), Velvetleaf", "setting": "[13]; [19]", "result": 20}, {"measurement": "Plant response rating, Velvetleaf", "setting": "[13]; [20]", "result": 10}, {"measurement": "Plant response rating, Cupgrass, Woolly", "setting": "[14]; [17]", "result": 100}, {"measurement": "Plant response rating, Cupgrass, Woolly", "setting": "[14]; [18]", "result": 90}, {"measurement": "Plant response rating (0 to 100), Cupgrass, Woolly", "setting": "[14]; preemergence, Rate 250 g/ha", "result": 100}, {"measurement": "Plant response rating (0 to 100), Cupgrass, Woolly", "setting": "[14]; preemergence, Rate 500 g/ha", "result": 100}, {"measurement": "Plant response rating, Nutsedge", "setting": "[15]; [17]", "result": 20}, {"measurement": "Plant response rating, Nutsedge", "setting": "[15]; [18]", "result": 20}, {"measurement": "Plant response rating (0 to 100), Nutsedge", "setting": "[15]; [19]", "result": 20}, {"measurement": "Plant response rating, Nutsedge", "setting": "[15]; [20]", "result": 20}, {"measurement": "Plant response rating (0 to 100), Nightshade", "setting": "Nightshade [16]", "result": 90}]}
